Tests used:
[1] = biological target: T1, Androgen receptor (Homo sapiens, UniProt P10275); test: Binding affinity to human androgen receptor
T1 sequence (P10275 whole entry): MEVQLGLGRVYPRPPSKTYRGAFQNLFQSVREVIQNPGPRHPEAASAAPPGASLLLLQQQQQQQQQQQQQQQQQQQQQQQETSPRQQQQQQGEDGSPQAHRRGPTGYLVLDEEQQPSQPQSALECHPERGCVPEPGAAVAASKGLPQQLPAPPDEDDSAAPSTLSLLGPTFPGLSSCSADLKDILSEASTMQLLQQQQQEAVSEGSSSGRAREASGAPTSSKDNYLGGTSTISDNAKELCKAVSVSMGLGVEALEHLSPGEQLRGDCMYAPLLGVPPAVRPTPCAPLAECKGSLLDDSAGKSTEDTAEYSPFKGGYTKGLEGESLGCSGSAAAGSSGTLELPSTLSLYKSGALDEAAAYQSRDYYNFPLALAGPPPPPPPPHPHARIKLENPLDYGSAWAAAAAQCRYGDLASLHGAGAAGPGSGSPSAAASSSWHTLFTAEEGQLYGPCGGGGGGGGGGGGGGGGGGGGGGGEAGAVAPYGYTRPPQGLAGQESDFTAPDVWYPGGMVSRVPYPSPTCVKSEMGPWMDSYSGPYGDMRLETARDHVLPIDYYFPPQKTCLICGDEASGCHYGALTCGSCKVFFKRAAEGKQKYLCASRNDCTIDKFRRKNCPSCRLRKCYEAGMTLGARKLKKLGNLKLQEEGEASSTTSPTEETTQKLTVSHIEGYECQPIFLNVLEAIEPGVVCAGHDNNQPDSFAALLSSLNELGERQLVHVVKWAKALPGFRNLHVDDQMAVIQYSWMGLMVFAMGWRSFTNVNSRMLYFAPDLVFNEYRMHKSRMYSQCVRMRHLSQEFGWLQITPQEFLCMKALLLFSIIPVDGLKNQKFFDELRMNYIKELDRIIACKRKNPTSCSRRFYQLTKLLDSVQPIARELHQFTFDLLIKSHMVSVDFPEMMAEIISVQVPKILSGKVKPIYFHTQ

[2] = biological target: Estrogen receptor beta (Homo sapiens, UniProt Q92731); test: Binding affinity to human ERbeta
Estrogen receptor beta, sequence (Q92731 whole entry): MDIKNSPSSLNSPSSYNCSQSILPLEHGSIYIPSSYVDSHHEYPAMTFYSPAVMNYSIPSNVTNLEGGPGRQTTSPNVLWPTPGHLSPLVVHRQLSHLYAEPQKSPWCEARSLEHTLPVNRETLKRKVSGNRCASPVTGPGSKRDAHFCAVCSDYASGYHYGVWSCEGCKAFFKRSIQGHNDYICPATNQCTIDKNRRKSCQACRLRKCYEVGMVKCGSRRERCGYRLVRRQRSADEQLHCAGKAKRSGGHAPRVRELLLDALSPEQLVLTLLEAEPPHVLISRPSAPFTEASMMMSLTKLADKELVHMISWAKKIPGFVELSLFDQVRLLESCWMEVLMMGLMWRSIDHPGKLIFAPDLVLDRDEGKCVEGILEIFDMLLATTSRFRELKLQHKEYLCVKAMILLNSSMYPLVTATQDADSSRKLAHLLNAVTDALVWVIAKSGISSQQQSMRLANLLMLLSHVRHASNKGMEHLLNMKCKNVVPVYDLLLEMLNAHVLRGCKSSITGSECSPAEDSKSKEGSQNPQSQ

[3] = biological target: T2, Glucocorticoid receptor (Homo sapiens, UniProt P04150); test: Binding affinity to human glucocorticoid receptor
T2 sequence (P04150 whole entry): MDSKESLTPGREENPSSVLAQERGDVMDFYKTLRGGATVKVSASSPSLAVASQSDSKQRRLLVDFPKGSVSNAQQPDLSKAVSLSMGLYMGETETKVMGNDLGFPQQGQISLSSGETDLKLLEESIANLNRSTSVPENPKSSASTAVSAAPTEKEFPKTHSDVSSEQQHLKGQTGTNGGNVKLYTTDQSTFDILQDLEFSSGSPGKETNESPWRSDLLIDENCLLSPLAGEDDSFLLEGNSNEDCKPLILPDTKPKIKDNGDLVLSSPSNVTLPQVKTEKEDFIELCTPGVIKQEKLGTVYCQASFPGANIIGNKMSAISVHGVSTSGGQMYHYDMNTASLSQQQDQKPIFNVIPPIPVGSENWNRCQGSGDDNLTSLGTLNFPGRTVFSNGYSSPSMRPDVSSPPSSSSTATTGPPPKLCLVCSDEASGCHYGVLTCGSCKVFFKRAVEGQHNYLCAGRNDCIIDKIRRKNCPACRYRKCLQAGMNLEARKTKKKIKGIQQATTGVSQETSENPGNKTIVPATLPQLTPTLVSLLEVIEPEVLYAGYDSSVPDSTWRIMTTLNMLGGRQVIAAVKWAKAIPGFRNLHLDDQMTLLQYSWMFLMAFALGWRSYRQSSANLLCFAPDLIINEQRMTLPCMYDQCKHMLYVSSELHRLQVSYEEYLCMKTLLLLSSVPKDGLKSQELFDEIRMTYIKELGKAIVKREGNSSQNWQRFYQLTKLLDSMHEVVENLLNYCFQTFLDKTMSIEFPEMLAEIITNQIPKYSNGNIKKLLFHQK

[4] = biological target: T2, Glucocorticoid receptor; test: Transrepression activity at GR in human SW1353 cells assessed as inhibition of IL1-stimulated MMP13 production after 24 hrs by whole cell ELISA; format: cell-based
[5] = biological target: T3, Progesterone receptor (Homo sapiens, UniProt P06401); test: Binding affinity to human progesterone receptor
T3 sequence (P06401 whole entry): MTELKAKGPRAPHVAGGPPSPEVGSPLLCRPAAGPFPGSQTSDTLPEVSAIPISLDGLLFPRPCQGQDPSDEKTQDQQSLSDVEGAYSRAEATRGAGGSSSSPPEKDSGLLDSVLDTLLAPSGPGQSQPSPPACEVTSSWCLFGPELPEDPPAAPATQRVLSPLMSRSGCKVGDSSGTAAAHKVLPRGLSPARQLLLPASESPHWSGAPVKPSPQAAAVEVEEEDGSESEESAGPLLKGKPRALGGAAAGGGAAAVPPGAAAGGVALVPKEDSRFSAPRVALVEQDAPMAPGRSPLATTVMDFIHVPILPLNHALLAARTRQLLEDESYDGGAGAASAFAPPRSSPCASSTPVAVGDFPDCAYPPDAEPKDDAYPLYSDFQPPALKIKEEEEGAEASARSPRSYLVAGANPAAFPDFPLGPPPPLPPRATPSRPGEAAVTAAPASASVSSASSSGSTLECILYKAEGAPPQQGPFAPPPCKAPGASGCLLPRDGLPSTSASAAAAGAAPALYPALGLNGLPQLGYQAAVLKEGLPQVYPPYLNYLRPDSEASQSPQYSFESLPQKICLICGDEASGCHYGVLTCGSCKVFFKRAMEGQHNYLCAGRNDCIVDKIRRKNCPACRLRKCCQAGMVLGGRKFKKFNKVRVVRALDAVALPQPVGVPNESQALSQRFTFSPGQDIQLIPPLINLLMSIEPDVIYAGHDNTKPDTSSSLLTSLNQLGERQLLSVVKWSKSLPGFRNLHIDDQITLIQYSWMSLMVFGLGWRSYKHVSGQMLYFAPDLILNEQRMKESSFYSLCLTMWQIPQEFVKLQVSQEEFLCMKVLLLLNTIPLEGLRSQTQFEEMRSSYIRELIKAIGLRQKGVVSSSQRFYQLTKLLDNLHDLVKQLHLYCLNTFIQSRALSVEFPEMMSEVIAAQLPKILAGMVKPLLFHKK

[6] = biological target: T4, Estrogen receptor (Homo sapiens, UniProt P03372); test: Binding affinity to human ERalpha
T4 sequence (P03372 whole entry): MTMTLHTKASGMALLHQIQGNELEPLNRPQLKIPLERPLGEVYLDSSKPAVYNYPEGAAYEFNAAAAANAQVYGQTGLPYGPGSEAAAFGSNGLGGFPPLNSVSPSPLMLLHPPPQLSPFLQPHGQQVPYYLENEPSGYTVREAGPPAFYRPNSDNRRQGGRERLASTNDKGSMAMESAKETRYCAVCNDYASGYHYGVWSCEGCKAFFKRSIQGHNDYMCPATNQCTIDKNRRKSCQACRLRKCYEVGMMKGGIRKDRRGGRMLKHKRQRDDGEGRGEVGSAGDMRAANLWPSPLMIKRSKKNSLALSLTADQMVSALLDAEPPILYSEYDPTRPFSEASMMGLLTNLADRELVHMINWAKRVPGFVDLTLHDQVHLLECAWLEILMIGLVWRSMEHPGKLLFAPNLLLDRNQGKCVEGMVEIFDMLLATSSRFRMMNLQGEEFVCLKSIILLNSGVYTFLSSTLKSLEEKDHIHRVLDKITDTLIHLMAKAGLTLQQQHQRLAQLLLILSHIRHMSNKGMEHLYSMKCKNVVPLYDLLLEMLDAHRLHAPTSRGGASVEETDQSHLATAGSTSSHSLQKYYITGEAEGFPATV

[7] = biological target: T2, Glucocorticoid receptor; test: Transrepression activity at GR in human SW1353 cells assessed as suppression of NFkappaB-induced IL8 production; format: cell-based

Structure (SMILES) | IC50 [1] | IC50 [2] | IC50 [3] | IC50 [4] | IC50 [5] | IC50 [6] | IC50 [7]
CC#C[C@@]1(O)CC[C@@]2(CC)c3ccc(O)cc3CC[C@@H]2C1 | 0.42 µM | 0.58 µM | 5.6 nM | 14 nM | 2600 nM | 0.089 µM | –
CC#C[C@@]1(O)CC[C@@]2(CC)c3ccc(OCc4ccncc4)cc3CC[C@@H]2C1 | – | 3.5 µM | 3 nM | 31 nM | – | 0.67 µM | –
CC#C[C@@]1(O)CC[C@@]2(CC)c3ccc(OCc4cccnc4C)cc3CC[C@@H]2C1 | 0.88 µM | > 10 µM | 2.3 nM | 6.3 nM | – | > 10 µM | –
CC[C@@]12C[C@H](O)[C@H](c3ccccc3)C[C@H]1CCc1cc(O)ccc12 | – | – | 1.3 nM | 1100 nM | – | – | –
CC[C@@]12C[C@H](O)[C@](O)(c3ccccc3)C[C@H]1CCc1cc(OCc3cccnc3C)ccc12 | > 10 µM | > 10 µM | 1.5 nM | 38 nM | > 1000 nM | > 10 µM | –
CC[C@@]12C[C@@H](O)[C@](O)(c3ccccc3)C[C@H]1CCc1cc(O)ccc12 | – | – | 3.8 nM | 5000 nM | – | – | –
CC[C@@]12CC[C@](O)(c3ccccc3)C[C@H]1CCc1cc(OCc3cccnc3C)ccc12 | – | – | 6 nM | 1500 nM | – | – | –
CC#C[C@@]1(O)CC[C@@]2(CCC)c3ccc(O)cc3CC[C@@H]2C1 | – | – | 1.5 nM | > 5000 nM | – | – | –
CC#C[C@]1(O)C[C@H]2CCc3cc(OCc4cccnc4C)ccc3[C@]2(CC)C[C@@H]1O | > 10 µM | > 10 µM | 3.3 nM | 15 nM | > 10000 nM | > 10 µM | –

Further lines, results first:

IC50 [1] | IC50 [2] | IC50 [3] | IC50 [4] | IC50 [5] | IC50 [6] | IC50 [7] | Structure (SMILES)
– | – | > 1000 nM | – | – | – | – | CC#C[C@@]1(O)CC[C@@]2(CO)c3ccc(O)cc3CC[C@@H]2C1
– | – | > 1000 nM | – | – | – | – | CC#C[C@@]1(O)CC[C@@]2(CCO)c3ccc(O)cc3CC[C@@H]2C1
> 10 µM | > 10 µM | 35 nM | 63 nM | > 10000 nM | > 10 µM | – | CC#C[C@]1(O)C[C@H]2CCc3cc(O)ccc3[C@]2(CC)C[C@@H]1O
> 10 µM | > 10 µM | 360 nM | – | – | > 10 µM | – | CC#C[C@]1(O)C[C@H]2CCc3cc(O)ccc3[C@]2(CC)[C@H](O)C1
– | – | 21 nM | > 5000 nM | – | – | – | CC[C@@]12CC[C@](O)(c3ccccc3)C[C@H]1CCc1cc(O)ccc12
– | – | 3.5 nM | > 5000 nM | – | – | – | CC#C[C@@]1(O)CC[C@@]2(/C=C/C)c3ccc(O)cc3CC[C@@H]2C1
> 10 µM | 0.66 µM | 2.5 nM | 140 nM | 750 nM | 3.4 µM | – | CC[C@@]12C[C@H](O)[C@](O)(c3ccccc3)C[C@H]1CCc1cc(O)ccc12
– | – | 17 nM | > 5000 nM | – | – | – | CC#C[C@@]1(O)CC[C@@]2(C)c3ccc(O)cc3CC[C@@H]2C1
> 1 µM | 0.25 µM | 6.2 nM | 14 nM | 1100 nM | 0.093 µM | 34 nM | C=CCC12CC[C@](O)(C#CC)C[C@H]1CCc1cc(O)ccc12 (single isomer, unassigned)
